# Experiments:
# central nervous system = details: has been reported, cited from earlier work
# subjects with GBS = assay: Phase II double-blind, placebo controlled, crossover study; motor strength on 0-5 ordinal scale; type: in vivo, human patients; details: on average, fast release 4-AP 10 mg three times daily, oral capsule
# Description: This is a Phase II double-blind, placebo controlled, crossover, dose-escalating study in subjects with […]. An initial trial of ten patients is randomized to one of the two treatment sequences (A or B) as shown below. The study population consists of subjects with GBS injury whose neurological status has been stable for at least eighteen months. Ten subjects are enrolled. Variables to be Collected: The measures of neurological status reported for this study are: • Motor strength was rated on the traditional 0-5 ordinal scale: • 0—absent motor strength • 1—trace motor strength • 2—can move the specified joint but only with gravity eliminated • 3—can move the joint against gravity but not against any opposing force • 4—can move the joint against opposing force but the strength is not normal for the person or symmetrical • 5—normal motor strength This scale is employed to measure the following motor strength for each of these joint motions on both the right and the left sides: hip flexion, hip adduction, hip abduction, knee flexion, knee extension, ankle dorsiflexion, ankle plantar flexion, shoulder abduction, elbow extension, elbow flexion, wrist flexion, and wrist extension. 4-AP is compounded in a #1 quick dissolution capsule containing 5 mg 4-AP and 235 mg lactose. […]
smiles,measurement,setting,value
"Nc1ccnc(N)c1 [2,4-DAP, 2,4-diaminopyridine]",Toxicity,"central nervous system; compared with 4-AP or 2,3-DAP","less toxicity than either 4-AP or 2,3-DAP"
same,Central nervous system stimulation,central nervous system; compared with 4-AP,less central nervous system stimulation than 4-AP
"Nc1ccncc1 [4-AP, 4-aminopyridine]",Upper extremity strength increase relative to placebo,subjects with GBS,15%
same,Lower extremity strength increase relative to placebo,"subjects with GBS; hip abduction, hip adduction, hip flexion, knee flexion, ankle dorsiflexion and plantar flexion",15%
